Experimental data published in US20230219904A1 (SYNGENTA CROP PROTECTION AG, priority 2020, published 2023).

Key:
Assay type in all cases: in vivo
[1] = system: Amaranthus retoflexus (AMARE); assay: Pre-emergence herbicidal glasshouse test (Table B1); settings: evaluated after 13 days
Procedure: (§1) Seeds of a variety of test species are sown in standard soil in pots (Lolium perenne (LOLPE), Amaranthus retoflexus (AMARE), Abutilon theophrasti (ABUTH), Setaria faberi (SETFA), Echinochloa crus-galh (ECHCG), Ipomoea hederacea (IPOHE)). After cultivation for one day (pre-emergence) or after 8 days cultivation (post-emergence) under controlled conditions in a glasshouse (at 24/16° C., day/night; 14 hours light; 65% humidity), the plants are sprayed with an aqueous spray solution derived from the formulation of the technical active ingredient in acetone/water (50:50) solution containing 0.5% Tween 20 (polyoxyethelyene sorbitan monolaurate, CAS RN 9005-64-5). Compounds are applied at 500 g/h unless otherwise indicated. The test plants are then grown in a glasshouse under controlled conditions in a glasshouse (at 24/16° C., day/night; 14 hours light; 65% humidity) and watered twice daily. After 13 days for pre and post-emergence, the test is evaluated for the percentage damage caused to the plant. The biological activities are shown in the following table on a five-point scale (5=80-100%; 4=60-79%; 3=40-59%; 2=20-39%; 1=0-19%).

[2] = system: Setaria faberi (SETFA); assay: as above; settings: evaluated after 13 days
Procedure: as §1

[3] = system: Abutilon theophrasti (ABUTH); assay: as above; settings: evaluated after 13 days
Procedure: as §1

[4] = system: Echinochloa crus-galh (ECHCG); assay: as above; settings: evaluated after 13 days
Procedure: as §1

[5] = system: Ipomoea hederacea (IPOHE); assay: as above; settings: evaluated after 13 days
Procedure: as §1

[6] = system: Amaranthus retoflexus (AMARE); assay: Post-emergence herbicidal glasshouse test (Table B1); settings: evaluated after 13 days
Procedure: as §1

[7] = system: Setaria faberi (SETFA); assay: as above; settings: evaluated after 13 days
Procedure: as §1

[8] = system: Echinochloa crus-galh (ECHCG); assay: as above; settings: applied at 125 g/ha, evaluated after 13 days
Procedure: as §1

[9] = system: Ipomoea hederacea (IPOHE); assay: as above; settings: evaluated after 13 days
Procedure: as §1

SMILES	PRE Application AMARE, percentage damage on five-point scale ([1]; applied at 125 g/ha)	PRE Application SETFA, percentage damage on five-point scale ([2]; applied at 125 g/ha)	PRE Application ABUTH, percentage damage on five-point scale ([3]; applied at 125 g/ha)	PRE Application ECHCG, percentage damage on five-point scale ([4]; applied at 125 g/ha)	PRE Application IPOHE, percentage damage on five-point scale ([5]; applied at 125 g/ha)	POST Application AMARE, percentage damage on five-point scale ([6]; applied at 125 g/ha)	POST Application SETFA, percentage damage on five-point scale ([7]; applied at 125 g/ha)	POST Application ECHCG, percentage damage on five-point scale [8]	POST Application IPOHE, percentage damage on five-point scale ([9]; applied at 125 g/ha)	PRE Application AMARE, percentage damage on five-point scale ([1]; applied at 500 g/h)	PRE Application SETFA, percentage damage on five-point scale ([2]; applied at 500 g/h)	PRE Application ABUTH, percentage damage on five-point scale ([3]; applied at 500 g/h)	PRE Application ECHCG, percentage damage on five-point scale ([4]; applied at 500 g/h)	PRE Application IPOHE, percentage damage on five-point scale ([5]; applied)	POST Application AMARE, percentage damage on five-point scale ([6]; applied at 500 g/h)	POST Application SETFA, percentage damage on five-point scale ([7]; applied at 500 g/h)	POST Application IPOHE, percentage damage on five-point scale ([9]; applied at 500 g/h)
Cc1nc(C)c(C(=O)Nc2c(OC(F)F)ccc(C(=O)Nc3nnnn3C)c2Cl)s1 [Compound 1.042]	5 (5=80-100%)	5 (5=80-100%)	4 (4=60-79%)	5 (5=80-100%)	5 (5=80-100%)	5 (5=80-100%)	5 (5=80-100%)	5 (5=80-100%)	5 (5=80-100%)								
Cn1cc(C(=O)Nc2c(OC(F)(F)F)ccc(C(=O)Nc3nnnn3C)c2Cl)c(C(F)F)n1 [Compound 1.045]	5 (5=80-100%)	5 (5=80-100%)	5 (5=80-100%)	5 (5=80-100%)	4 (4=60-79%)	5 (5=80-100%)	5 (5=80-100%)	5 (5=80-100%)	4 (4=60-79%)								
Cc1cc(C(=O)Nc2c(OC(F)(F)F)ccc(C(=O)Nc3nnnn3C)c2Cl)nn1C [Compound 1.046]	5 (5=80-100%)	5 (5=80-100%)	5 (5=80-100%)	5 (5=80-100%)	5 (5=80-100%)	5 (5=80-100%)	5 (5=80-100%)	5 (5=80-100%)	5 (5=80-100%)								
Cc1c(C(F)F)c(C(=O)Nc2c(OC(F)F)ccc(C(=O)Nc3nnnn3C)c2Cl)nn1C [Compound 1.052]	5 (5=80-100%)	5 (5=80-100%)	5 (5=80-100%)	5 (5=80-100%)	4 (4=60-79%)	5 (5=80-100%)	5 (5=80-100%)	4 (4=60-79%)	4 (4=60-79%)								
Cn1nnnc1NC(=O)c1ccc(OC(F)F)c(NC(=O)c2cc(C(F)(F)F)ccn2)c1Cl [Compound 1.053]	5 (5=80-100%)	4 (4=60-79%)	5 (5=80-100%)	4 (4=60-79%)	4 (4=60-79%)	5 (5=80-100%)	5 (5=80-100%)	3 (3=40-59%)	4 (4=60-79%)								
COc1ccccc1C(=O)Nc1c(OC(F)(F)F)ccc(C(=O)Nc2nnnn2C)c1Cl [Compound 1.056]	3 (3=40-59%)	3 (3=40-59%)	5 (5=80-100%)	1 (1=0-19%)		4 (4=60-79%)	4 (4=60-79%)	4 (4=60-79%)	4 (4=60-79%)								
CCOCCC(=O)Nc1c(OC(F)(F)F)ccc(C(=O)Nc2nnnn2C)c1Cl [Compound 1.057]	5 (5=80-100%)	4 (4=60-79%)	5 (5=80-100%)	5 (5=80-100%)	5 (5=80-100%)	5 (5=80-100%)	5 (5=80-100%)	5 (5=80-100%)	4 (4=60-79%)								
COCCCC(=O)Nc1c(OC(F)(F)F)ccc(C(=O)Nc2nnnn2C)c1Cl [Compound 1.058]	5 (5=80-100%)	3 (3=40-59%)	5 (5=80-100%)	5 (5=80-100%)	5 (5=80-100%)	4 (4=60-79%)	4 (4=60-79%)	5 (5=80-100%)	4 (4=60-79%)								
Cn1nnnc1NC(=O)c1ccc(OC(F)(F)F)c(NC(=O)C(F)F)c1Cl [Compound 1.059]	5 (5=80-100%)	1 (1=0-19%)	5 (5=80-100%)	4 (4=60-79%)	3 (3=40-59%)	5 (5=80-100%)	4 (4=60-79%)	5 (5=80-100%)	3 (3=40-59%)								
CCn1nnnc1NC(=O)c1ccc(OC(F)(F)F)c(NC(=O)C(C)(F)F)c1Cl [Compound 1.060]	5 (5=80-100%)	4 (4=60-79%)	5 (5=80-100%)	4 (4=60-79%)	3 (3=40-59%)	5 (5=80-100%)	5 (5=80-100%)	4 (4=60-79%)	4 (4=60-79%)								
Cn1nnnc1NC(=O)c1ccc(OC(F)(F)F)c(NC(=O)C(C)(F)F)c1Cl [Compound 1.061]	5 (5=80-100%)	3 (3=40-59%)		3 (3=40-59%)	3 (3=40-59%)	5 (5=80-100%)	5 (5=80-100%)	4 (4=60-79%)	4 (4=60-79%)								
CCCOCC(=O)Nc1c(OC(F)(F)F)ccc(C(=O)Nc2nnnn2C)c1Cl [Compound 1.062]	5 (5=80-100%)	3 (3=40-59%)		2 (2=20-39%)	4 (4=60-79%)	5 (5=80-100%)	5 (5=80-100%)	4 (4=60-79%)	4 (4=60-79%)								
CCn1nnnc1NC(=O)c1ccc(OC(F)(F)F)c(NC(=O)CCCOC)c1Cl [Compound 1.067]	5 (5=80-100%)	5 (5=80-100%)	5 (5=80-100%)	5 (5=80-100%)	5 (5=80-100%)	5 (5=80-100%)	5 (5=80-100%)	5 (5=80-100%)	4 (4=60-79%)								
CCC(=O)Nc1c(OC(F)(F)C(F)F)ccc(C(=O)Nc2nnnn2C)c1Cl [Compound 1.109]										5 (5=80-100%)	4 (4=60-79%)	5 (5=80-100%)	4 (4=60-79%)	5 (5=80-100%)	5 (5=80-100%)	5 (5=80-100%)	5 (5=80-100%)
